Results: patent publication EP2865421A1, “Bitter taste receptor agonists for topical use” (Albert-Ludwigs-Universität Freiburg, priority 2013, dated 2015)

Legend:
[1] = system: HaCaT keratinocytes; assay: Calcium imaging (fura-2-am) in HaCaT keratinocytes; format: cell-based, human; details: for calcium influx: HaCaT cells
Protocol: The human keratinocyte cell line HaCaT, the neuroblastoma cell line SH-SY5Y and the placental cell line JEG-3 were from CLS Cell Lines Service (Heidelberg, Germany) and cultured in Dulbecco's modified essential medium (DMEM; Invitrogen) containing 10% fetal calf serum (FCS; PAA, Pasching, Austria) at 37 °C in a humidified atmosphere with 5% CO2. For double fluorescence stainings the cells were seeded in a four-field chamber slides (Thermo Fisher Scientific GmbH; 1 ×10^5 cells/ml). For calcium imaging experiments, cells were seeded on polylysin (Sigma-Aldrich, Munich, Germany) coated cover slips at a density of 1.5 -2x 10^5. After isolation of human primary keratinocytes (hPK) from skin samples, the cells were incubated for 3 days with calcium (2 mM), amarogentin (100 μM) or diphenidol (100 μM) before RNA isolation and determination of the differentiation markers. Intracellular Ca^2+ concentration measurements in single cells were carried out using the fluorescence indicator fura-2-am (Invitrogen). Cells were washed with a buffer containing 130 mM NaCl, 5 mM KCI, 10 mM HEPES, 10 mM Glucose and 1 mM CaCl2 adjusted to pH 7.4 and loaded with 2 μM fura-2-am and 0.04% Pluronic F-127 (Invitrogen) for 30 min. After rinsing twice, cells were allowed to de-esterify fura-2-am for 30 min. Measurements were performed with a monochromator-based imaging system attached to an inverted microscope (Axiovert S100, Zeiss). Fluorescence was excited at 340 and 380 nm and emission measured at 510 nm. After 60s, cells were stimulated with various concentrations of diphenidol or amarogentin, 100 μM PTC or the respective solvent control. […] receptor inhibition was performed by pre-incubation of JEG-3 cells for 1h with the […] antagonist probenecid (1 mM) before PTC stimulation. After correction of background fluorescence, the fluorescence ratio was calculated using Axiovision software.

[2] = system: human primary keratinocytes (hPKs); assay: Differentiation marker expression in human primary keratinocytes (RT-PCR); format: cell-based; details: 3 days, amarogentin 100 µM, diphenidol 100 µM or calcium 2 mM, vs untreated control (Figure 12)
Protocol: The human keratinocyte cell line HaCaT, the neuroblastoma cell line SH-SY5Y and the placental cell line JEG-3 were from CLS Cell Lines Service (Heidelberg, Germany) and cultured in Dulbecco's modified essential medium (DMEM; Invitrogen) containing 10% fetal calf serum (FCS; PAA, Pasching, Austria) at 37 °C in a humidified atmosphere with 5% CO2. For double fluorescence stainings the cells were seeded in a four-field chamber slides (Thermo Fisher Scientific GmbH; 1 ×10^5 cells/ml). For calcium imaging experiments, cells were seeded on polylysin (Sigma-Aldrich, Munich, Germany) coated cover slips at a density of 1.5 -2x 10^5. After isolation of human primary keratinocytes (hPK) from skin samples, the cells were incubated for 3 days with calcium (2 mM), amarogentin (100 µM) or diphenidol (100 µM) before RNA isolation and determination of the differentiation markers. Reverse transcription PCR was performed as described (Muller et al.,2008). In brief, total RNA was isolated using the Trizol reagent (Invitrogen) according to the manusfacturer's instruction. […] The PCR primers (20 pmol each) used to amplify keratin 10 (KRT10), INV, TGM and ß-actine were already published (Muller et al., 2008). ß-actine was used as internal loading control. After gel electrophoresis quantification was archived with ImageJ software.

[3] = system: LAD-2 cells; format: cell-based, human
Protocol: (§4) The method is based on the bioluminescence measurement of ATP that is present in metabolically active cells. Luciferase catalyzes the formation of light from ATP and luciferin. The emitted light intensity is directly proportional to the ATP concentration and is measured using a luminometer (Sirius HT; MWG).

[4] = system: LAD-2 human mast cells; assay: Degranulation assay: histamine release from SP-stimulated LAD-2 mast cells (ELISA); format: cell-based; details: SP 2 µM, 1 h, 30 min pre-incubation, amarogentin 136 µM, azelastine 24 µM (Figure 14A)
Protocol: (§1) LAD-2 human mast cells (obtained from Dr. A. Kirshenbaum NIH) were cultured in serum-free media (StemPro-34, Gibco, Germany) supplemented with 2mM L-glutamine and 100 ng/ml rhSCF (recombinant human stem cell factor; Cell signaling technologies). The human keratinocyte cell line HaCaT was cultured in Dulbecco's modified essential medium (DMEM; Invitrogen) containing 10% fetal calf serum (FCS; PAA, Pasching, Austria) at 37 °C in a humidified atmosphere with 5% CO2. LAD-2 cells were washed with PBS and resuspended in complete medium. LAD-2 cells (2x10^5 cells /400 µl/well) were plated in 48 well flat bottom Falcon cell culture plates from Becton Dickinson and then stimulated with SP (2 µM, Sigma-Aldrich) for 1 or 24 h. Some cells were pre-incubated for 30 min with amarogentin (136 µM, Phytolab), diphenidol (136 µM, Santa Cruz) or azelastine (24 µM, Sigma) as indicated. The supernatants were collected for further assays. Mast cell degranulation was assessed by measuring histamine in the supernatant fluid 1 h after cell stimulation with SP (2 µM). Histamine levels were assayed using a Histamine ELISA from IBL international.

[5] = system: LAD-2 human mast cells; assay: TNF-α release from SP-stimulated LAD-2 mast cells (ELISA); format: cell-based; details: SP 2 µM, 24 h, 30 min pre-incubation, amarogentin 136 µM, diphenidol 136 µM, azelastine 24 µM (Figure 14B)
Protocol: as §1, with “assays. TNF-α, IL-6, IL-8 and MMP-1 release into” for “assays. Mast cell degranulation was assessed by measuring histamine in”, “fluid 24” for “fluid 1”, “stimulation (either LAD-2 oder HaCaT cells)” for “stimulation with SP (2 µM). Histamine levels”, “were measured by Enzyme-Linked Immunosorbent Assay (ELISA)” for “were assayed”, “a commercial kit” for “a Histamine ELISA”, “from R&D Systems according to the manual instructions.” for “from IBL international.”

[6] = system: keratinocyte cell line HaCaT; assay: IL-8 and MMP-1 release from HaCaT stimulated with histamine and TNF-α (ELISA); format: cell-based, human; details: histamine + TNF-α (25 ng/ml), 24 h, amarogentin 136 µM 30 min pre-incubation (Figure 15A)
Protocol: (§2) The Keratinocyte cell line HaCaT (2x10^5 cells /400 µl/well) were plated in 48 well flat bottom Falcon cell culture plates from Becton Dickinson and then stimulated with histamine (100 µl) and TNF-α (25 ng/ml) or IFNγ (200U/ml) for 24 h. Some cells were pre-incubated for 30 min with amarogentin (136 µM, Phytolab), diphenidol (136 µM, Santa Cruz) or azelastine (24 µM, Sigma) as indicated. The supernatants were collected for further assays.
TNF-α, IL-6, IL-8 and MMP-1 release into the supernatant fluid 24 h after cell stimulation (either LAD-2 oder HaCaT cells) were measured by Enzyme-Linked Immunosorbent Assay (ELISA) using a commercial kit from R&D Systems according to the manual instructions.

[7] = system: keratinocyte cell line HaCaT; assay: IL-6 and MMP-1 release from HaCaT stimulated with histamine and IFN-γ (ELISA); format: cell-based, human; details: histamine + IFN-γ (200U/ml), 24 h, amarogentin 136 µM, azelastine 24 µM (Figure 15B)
Protocol: as §2, with “assays. TNF-α, IL-6, IL-8 and MMP-1 release into the supernatant fluid 24 h after cell stimulation (either LAD-2 oder HaCaT cells) were measured by Enzyme-Linked Immunosorbent Assay (ELISA) using a commercial kit from R&D Systems according to the manual instructions.” for “assays.”

[8] = system: HaCaT cells
Protocol: as §4

[9] = target: T1, T2R38 (Homo sapiens, UniProt P59533, A49P/I296V); assay: PTC-induced calcium influx in taster cell line JEG-3 and its inhibition by probenecid; format: cell-based
T1 construct: endogenous in cells; host or cells: JEG-3 (human placental cell line)
T1 sequence (P59533 1-333 A49P/I296V): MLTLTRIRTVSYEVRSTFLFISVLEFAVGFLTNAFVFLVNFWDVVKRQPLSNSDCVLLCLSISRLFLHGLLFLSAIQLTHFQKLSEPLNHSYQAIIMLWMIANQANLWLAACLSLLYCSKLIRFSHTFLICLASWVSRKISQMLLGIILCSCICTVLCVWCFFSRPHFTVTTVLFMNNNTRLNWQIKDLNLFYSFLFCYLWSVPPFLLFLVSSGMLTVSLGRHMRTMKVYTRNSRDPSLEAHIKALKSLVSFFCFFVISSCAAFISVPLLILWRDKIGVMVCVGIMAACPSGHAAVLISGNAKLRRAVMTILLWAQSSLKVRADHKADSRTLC
Protocol: Intracellular Ca^2+ concentration measurements in single cells were carried out using the fluorescence indicator fura-2-am (Invitrogen). Cells were washed with a buffer containing 130 mM NaCl, 5 mM KCI, 10 mM HEPES, 10 mM Glucose and 1 mM CaCl2 adjusted to pH 7.4 and loaded with 2 µM fura-2-am and 0.04% Pluronic F-127 (Invitrogen) for 30 min. After rinsing twice, cells were allowed to de-esterify fura-2-am for 30 min. Measurements were performed with a monochromator-based imaging system attached to an inverted microscope (Axiovert S100, Zeiss). Fluorescence was excited at 340 and 380 nm and emission measured at 510 nm. After 60s, cells were stimulated with various concentrations of diphenidol or amarogentin, 100 µM PTC or the respective solvent control. T2R38 receptor inhibition was performed by pre-incubation of JEG-3 cells for 1h with the T2R38 antagonist probenecid (1 mM) before PTC stimulation. After correction of background fluorescence, the fluorescence ratio was calculated using Axiovision software.

[10] = system: SH-SY5Y neuroblastoma cells; assay: Calcium imaging (fura-2-am) in SH-SY5Y neuroblastoma cells; format: cell-based, human; details: 100 µM diphenidol, significant, maximum stated for all cell lines (Figure 8)
Protocol: (§3) The human keratinocyte cell line HaCaT, the neuroblastoma cell line SH-SY5Y and the placental cell line JEG-3 were from CLS Cell Lines Service (Heidelberg, Germany) and cultured in Dulbecco's modified essential medium (DMEM; Invitrogen) containing 10% fetal calf serum (FCS; PAA, Pasching, Austria) at 37 °C in a humidified atmosphere with 5% CO2. For double fluorescence stainings the cells were seeded in a four-field chamber slides (Thermo Fisher Scientific GmbH; 1 ×10^5 cells/ml). For calcium imaging experiments, cells were seeded on polylysin (Sigma-Aldrich, Munich, Germany) coated cover slips at a density of 1.5 -2x 10^5. After isolation of human primary keratinocytes (hPK) from skin samples, the cells were incubated for 3 days with calcium (2 mM), amarogentin (100 μM) or diphenidol (100 μM) before RNA isolation and determination of the differentiation markers. Intracellular Ca^2+ concentration measurements in single cells were carried out using the fluorescence indicator fura-2-am (Invitrogen). Cells were washed with a buffer containing 130 mM NaCl, 5 mM KCI, 10 mM HEPES, 10 mM Glucose and 1 mM CaCl2 adjusted to pH 7.4 and loaded with 2 μM fura-2-am and 0.04% Pluronic F-127 (Invitrogen) for 30 min. […] Fluorescence was excited at 340 and 380 nm and emission measured at 510 nm. […] After correction of background fluorescence, the fluorescence ratio was calculated using Axiovision software.

[11] = system: JEG-3 placental cells; assay: Calcium imaging (fura-2-am) in JEG-3 placental cells; format: cell-based, human; details: 100 µM diphenidol, significant, maximum stated for all cell lines (Figure 8)
Protocol: as §3

| Molecule | expression of the differentiation marker keratin 10, involucrin und transglutaminase [2] | cytotoxicity [3] | histamine release [4] | secretion of TNF-α [5] | IL-6 production [7] | MMP-1 production [7] | cytotoxicity [8] | further results |
| --- | --- | --- | --- | --- | --- | --- | --- | --- |
| amarogentin | increased | no cytotoxicity | inhibits histamine release | blocked the secretion of TNF-α | decreased | decreased | no cytotoxicity | calcium influx ([1]; 100 µM amarogentin, vs 0.1% EtOH (Figure 11)): significant calcium influx; release of IL-8 [6]: reduces the release; release of MMP-1 [6]: reduces the release |
| NC(=S)Nc1ccccc1 [PTC, Phenylthiocarbamid] |  |  |  |  |  |  |  | calcium influx ([9]; PTC 100 µM, JEG-3 cells (PAV taster), vs DMSO 0.05% (Figure 10)): induced calcium influx |
| CCCN(CCC)S(=O)(=O)c1ccc(C(=O)O)cc1 [probenecid] |  |  |  |  |  |  |  | PTC-induced calcium currents ([9]; 1h pre-incubation with probenecid (1 mM), then PTC 100 µM, JEG-3 cells): reduces PTC-induced calcium currents to solvent level |
| CN1CCCC(n2nc(Cc3ccc(Cl)cc3)c3ccccc3c2=O)CC1 (stereo not drawn) [azelastine] |  | no cytotoxicity | inhibits histamine release | blocked the secretion of TNF-α | decreased | decreased |  |  |
| OC(CCCN1CCCCC1)(c1ccccc1)c1ccccc1 [diphenidol] | increased |  |  | blocked the secretion of TNF-α |  |  | no cytotoxicity | calcium influx compared to the solvent control ([1]; 100 µM diphenidol, HaCaT, significant, maximum stated for all cell lines (Figure 8)): up to 7 fold; calcium influx ([1]; diphenidol 30 µM, fura-2 ratio before/after stimulation vs solvent (Figure 11)): significant calcium influx; calcium influx compared to the solvent control [10]: up to 7 fold; calcium influx compared to the solvent control [11]: up to 7 fold |
